# Source: ChEMBL document CHEMBL5505987 (Eur J Med Chem, 2024)
# Key:
# Format in all cases: functional, cell-based
# [1] = tested on: MDA-MB-231; test: Cytotoxicity against human MDA-MB-231 cells assessed as cell viability by MTT assay
# [2] = tested on: MCF7; test: Cytotoxicity against human MCF7 cells assessed as cell viability by MTT assay
# [3] = tested on: HeLa; test: Cytotoxicity against human HeLa cells assessed as cell viability by MTT assay
# [4] = tested on: A549; test: Cytotoxicity against human A549 cells assessed as cell viability by MTT assay
structure (smiles),measurement,setting,value
O=C1C[C@H](c2ccccc2)Oc2cc(O)c([C@@H](/C=C/C[C@@H](O)CCc3ccccc3)c3ccccc3)c(O)c21,IC50,[1],4.05 µM
same,IC50,[2],8.5 µM
same,IC50,[3],2 µM
same,IC50,[4],5.27 µM
